Measured values reported in patent US8927571B2, “Pyrido[4,3-B]indoles and methods of use” (Medivation Technologies, Inc., priority 2009, dated 2015).

How the values were obtained:
[1] = target: T1, human recombinant adrenergic α1D receptor (Homo sapiens, UniProt P25100); test: Adrenergic α1D radioligand binding assay ([3H]Prozosin); conditions: 0.6 nM [3H]Prozosin, read-out: Percent Inhibition of ligand binding, Adrenergic (1 μM) α1D
T1 construct: expressed in transfected cells; host or cells: human embryonic kidney (HEK-293) cells
T1 sequence (P25100 1-572): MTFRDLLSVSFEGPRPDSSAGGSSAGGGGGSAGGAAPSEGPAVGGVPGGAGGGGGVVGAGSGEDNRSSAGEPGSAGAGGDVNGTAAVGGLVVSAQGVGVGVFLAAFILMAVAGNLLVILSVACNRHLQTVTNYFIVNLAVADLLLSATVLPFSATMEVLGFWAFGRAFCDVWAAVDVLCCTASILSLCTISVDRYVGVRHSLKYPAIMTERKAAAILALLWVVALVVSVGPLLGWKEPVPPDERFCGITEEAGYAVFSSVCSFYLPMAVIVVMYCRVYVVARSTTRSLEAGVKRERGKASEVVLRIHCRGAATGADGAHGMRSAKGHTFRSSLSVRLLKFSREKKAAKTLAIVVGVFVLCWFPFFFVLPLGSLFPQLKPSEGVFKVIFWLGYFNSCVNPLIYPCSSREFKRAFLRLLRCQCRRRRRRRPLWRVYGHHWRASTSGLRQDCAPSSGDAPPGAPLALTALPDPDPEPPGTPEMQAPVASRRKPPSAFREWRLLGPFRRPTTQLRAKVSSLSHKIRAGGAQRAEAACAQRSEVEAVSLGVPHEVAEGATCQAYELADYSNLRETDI
Description: Compounds of invention were incubated with 0.6 nM [^3H]Prozosin for 60 min at 25° C. Non-specific binding was estimated in the presence of 10 μM phentolamine. Receptor proteins were filtered and washed, the filters were then counted to determine [^3H]Prozosin specifically bound. Compounds were screened at 1 μM or lower, using 1% DMSO as vehicle. Biochemical assay results are presented as the percent inhibition of specific binding in Table 3.

[2] = target: T2, human recombinant adrenergic α2A receptor (Homo sapiens, UniProt P08913); test: Adrenergic α2A radioligand binding assay ([3H]MK-912); conditions: 1 nM [3H]MK-912, read-out: Percent Inhibition of ligand binding, Adrenergic (1 μM) α2A
T2 construct: expressed in transfected cells; host or cells: insect Sf9 cells
T2 sequence (P08913 1-465): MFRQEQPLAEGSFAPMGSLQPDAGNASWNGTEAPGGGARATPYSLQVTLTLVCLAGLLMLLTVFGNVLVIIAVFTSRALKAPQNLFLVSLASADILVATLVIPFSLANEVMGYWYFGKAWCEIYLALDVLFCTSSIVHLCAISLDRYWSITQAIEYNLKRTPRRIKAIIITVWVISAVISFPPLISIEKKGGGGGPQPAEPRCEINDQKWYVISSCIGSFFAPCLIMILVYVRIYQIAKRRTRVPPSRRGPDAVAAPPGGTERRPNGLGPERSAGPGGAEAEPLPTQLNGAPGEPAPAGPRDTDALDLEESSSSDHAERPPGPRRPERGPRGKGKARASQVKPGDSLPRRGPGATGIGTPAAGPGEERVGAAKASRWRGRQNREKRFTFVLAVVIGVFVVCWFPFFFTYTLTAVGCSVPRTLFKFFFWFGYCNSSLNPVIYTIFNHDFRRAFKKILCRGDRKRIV
Description: To evaluate in radioligand binding assays the activity of compounds of the invention, human recombinant adrenergic α2A receptor expressed in insect Sf9 cells (Uhlen S et al. J. Pharmacol. Exp. Ther. 271:1558, 1994) in a modified Tris-HCl buffer (50 mM Tris-HCl, pH 7.4, 12.5 mM MgCl2, 2 mM EDTA) was used. Compounds of invention were incubated with 1 nM [^3H]MK-912 for 60 min at 25° C. MK912 is (2S-trans)-1,3,4,5′,6,6′,7,12b-octahydro-1′,3′-dimethyl-spiro[2H-benzofuro[2,3-a]quinolizine-2,4′(1′H)-pyrimidin]-2′(3′H)-one hydrochloride Non-specific binding was estimated in the presence of 10 μM WB-4101 (2-(2,6-dimethoxyphenoxyethyl) aminomethyl-1,4-benzodioxane hydrochloride). Receptor proteins were filtered and washed, the filters were then counted to determine [^3H]MK-912 specifically bound. Compounds were screened at 1 μM or lower, using 1% DMSO as vehicle. Biochemical assay results are presented as the percent inhibition of specific binding in Table 3.

[3] = target: human recombinant dopamine D2L receptor (Homo sapiens, UniProt P14416); test: Dopamine D2L radioligand binding assay ([3H]Spiperone); conditions: for inhibition at 1 µM: read-out: Percent Inhibition of ligand binding, Dopamine (1 μM) D2L
Chain of human recombinant dopamine D2L receptor (P14416 whole entry): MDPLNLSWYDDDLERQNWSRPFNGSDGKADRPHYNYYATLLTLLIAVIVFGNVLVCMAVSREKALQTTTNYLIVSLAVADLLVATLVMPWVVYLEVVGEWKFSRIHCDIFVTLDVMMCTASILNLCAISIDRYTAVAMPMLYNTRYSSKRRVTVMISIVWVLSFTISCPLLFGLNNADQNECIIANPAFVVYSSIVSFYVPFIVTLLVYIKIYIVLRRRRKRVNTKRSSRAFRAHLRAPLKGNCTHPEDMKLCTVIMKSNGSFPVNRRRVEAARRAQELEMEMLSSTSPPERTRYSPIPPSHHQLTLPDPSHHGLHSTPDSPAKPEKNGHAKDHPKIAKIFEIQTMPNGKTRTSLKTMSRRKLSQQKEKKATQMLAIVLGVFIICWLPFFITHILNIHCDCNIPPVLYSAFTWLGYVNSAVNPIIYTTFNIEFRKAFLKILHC
Description: Compounds of the invention were incubated with 0.16 nM [^3H]Spiperone for 120 min at 25° C. Non-specific binding was estimated in the presence of 10 μM Haloperidol. Receptor proteins were filtered and washed, the filters were then counted to determine [^3H]Spiperone specifically bound. Compounds were screened at 1 μM or lower, using 1% DMSO as vehicle. Biochemical assay results are presented as the percent inhibition of specific binding in Table 3.

[4] = target: T3, human recombinant serotonin (5-Hydroxytryptamine) 5-HT2A receptor (Homo sapiens, UniProt P28223); test: Serotonin 5-HT2A radioligand binding assay ([3H]Ketanserin); conditions: 0.5 nM [3H]Ketanserin, read-out: Percent Inhibition of ligand binding, Serotonin (1 μM) 5-HT2A
T3 construct: expressed in transfected cells; host or cells: Chinese hamster ovary (CHO-K1) cells
T3 sequence (P28223 whole entry): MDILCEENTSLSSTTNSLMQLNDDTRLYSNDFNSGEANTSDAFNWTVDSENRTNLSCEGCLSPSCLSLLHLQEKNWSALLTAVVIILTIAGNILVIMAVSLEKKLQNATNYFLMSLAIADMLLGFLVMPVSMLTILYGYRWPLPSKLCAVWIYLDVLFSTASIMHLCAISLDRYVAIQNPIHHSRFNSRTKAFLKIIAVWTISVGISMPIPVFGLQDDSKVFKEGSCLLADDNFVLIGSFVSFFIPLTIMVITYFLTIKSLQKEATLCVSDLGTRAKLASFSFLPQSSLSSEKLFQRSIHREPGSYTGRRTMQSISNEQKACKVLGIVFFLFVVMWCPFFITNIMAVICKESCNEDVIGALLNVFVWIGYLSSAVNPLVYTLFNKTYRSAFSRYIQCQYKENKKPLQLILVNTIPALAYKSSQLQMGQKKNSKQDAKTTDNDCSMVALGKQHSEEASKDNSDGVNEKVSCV
Description: Compounds of the invention were incubated with 0.5 nM [^3H]Ketanserin for 60 min at 25° C. Non-specific binding was estimated in the presence of 1 μM Mianserin. Receptor proteins were filtered and washed, the filters were then counted to determine [^3H]Ketanserin specifically bound. Compounds were screened at 1 μM or lower, using 1% DMSO as vehicle. Biochemical assay results are presented as the percent inhibition of specific binding in Table 4.

[5] = target: T4, human recombinant serotonin (5-Hydroxytryptamine) 5-HT6 receptor (Homo sapiens, UniProt P50406); test: Serotonin 5-HT6 radioligand binding assay ([3H]LSD); conditions: 1.5 nM [3H]LSD, read-out: Percent Inhibition of ligand binding, Serotonin (1 μM) 5-HT6
T4 construct: expressed in transfected cells; host or cells: human HeLa cells
T4 sequence (P50406 whole entry): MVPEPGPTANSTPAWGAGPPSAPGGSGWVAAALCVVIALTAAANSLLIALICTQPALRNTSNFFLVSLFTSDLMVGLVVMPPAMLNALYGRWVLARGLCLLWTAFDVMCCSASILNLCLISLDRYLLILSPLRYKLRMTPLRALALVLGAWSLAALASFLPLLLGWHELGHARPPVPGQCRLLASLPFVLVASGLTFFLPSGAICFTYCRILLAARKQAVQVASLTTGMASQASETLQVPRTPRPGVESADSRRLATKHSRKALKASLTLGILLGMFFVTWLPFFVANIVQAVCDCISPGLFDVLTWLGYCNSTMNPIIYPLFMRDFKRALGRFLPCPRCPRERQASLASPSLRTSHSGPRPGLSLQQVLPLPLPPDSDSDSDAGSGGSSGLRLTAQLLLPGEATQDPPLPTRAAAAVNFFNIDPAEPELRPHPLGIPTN
Description: (§1) Compounds of the invention were incubated with 1.5 nM [3H]Lysergic acid diethylamide (LSD) for 120 min at 37° C. […] Receptor proteins were filtered and washed, the filters were then counted to determine [3H]LSD specifically bound. Compounds were screened at 1 μM or lower, using 1% DMSO as vehicle. Biochemical assay results are presented as the percent inhibition of specific binding in Table 4.

[6] = target: human recombinant serotonin (5-Hydroxytryptamine) 5-HT7 receptor (Homo sapiens, UniProt P34969); test: Serotonin 5-HT7 radioligand binding assay ([3H]LSD); conditions: 5.5 nM [3H]LSD, read-out: Percent Inhibition of ligand binding, Serotonin (1 μM) 5-HT7
Chain of human recombinant serotonin (5-Hydroxytryptamine) 5-HT7 receptor (P34969 whole entry): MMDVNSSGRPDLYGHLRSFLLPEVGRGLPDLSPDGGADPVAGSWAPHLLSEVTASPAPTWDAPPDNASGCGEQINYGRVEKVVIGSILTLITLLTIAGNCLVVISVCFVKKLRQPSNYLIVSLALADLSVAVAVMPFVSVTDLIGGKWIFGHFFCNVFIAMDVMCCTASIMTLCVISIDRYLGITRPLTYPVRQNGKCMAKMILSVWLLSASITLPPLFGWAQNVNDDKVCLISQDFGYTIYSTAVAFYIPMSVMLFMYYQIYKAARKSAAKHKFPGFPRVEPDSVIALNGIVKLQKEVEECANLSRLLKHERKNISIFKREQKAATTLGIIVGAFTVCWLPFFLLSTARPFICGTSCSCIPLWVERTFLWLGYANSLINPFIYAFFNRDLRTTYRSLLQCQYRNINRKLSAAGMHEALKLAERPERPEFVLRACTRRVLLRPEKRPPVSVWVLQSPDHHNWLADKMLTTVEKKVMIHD
Description: as §1, with “of” for “of the”, “5.5” for “1.5”, “[^3H] Lysergic” for “[3H]Lysergic”, “2 h” for “120 min”, “25°” for “37°”, “[^3H]LSD” for “[3H]LSD”

| Structure (SMILES) | inhibition at 1 µM [1] | inhibition at 1 µM [2] | inhibition at 1 µM [3] | inhibition at 1 µM [4] | inhibition at 1 µM [5] | inhibition at 1 µM [6] | Percent Inhibition of ligand binding, Dopamine (1 μM) D2L [3] |
| --- | --- | --- | --- | --- | --- | --- | --- |
| Cc1ccc2c(c1)c1c(n2CC2(c3ccc(F)cc3)OCCO2)CCN(C)C1 [Compound 3, 5-((2-(4-fluorophenyl)-1,3-dioxolan-2-yl)methyl)-2,8-dimethyl-2,3,4,5-tetrahydro-1H-pyrido[4,3-b]indole] | 60% | 92% | 45% | 99% | 103% | 99% | – |
| CCOC(=O)CC(Cn1c2c(c3cc(C)ccc31)CN(C)CC2)c1ccc(F)cc1 (stereo not drawn) [Compound 6, ethyl 4-(2,8-dimethyl-3,4-dihydro-1H-pyrido[4,3-b]indol-5(2H)-yl)-3-(4-fluorophenyl)butanoate] | 106% | 95% | 24% | 95% | 102% | 93% | 31% |
| CN1CCc2c(c3cc(Cl)ccc3n2CC2(c3ccc(F)cc3)OCCO2)C1 [Compound 4, 8-chloro-5-((2-(4-fluorophenyl)-1,3-dioxolan-2-yl)methyl)-2-methyl-2,3,4,5-tetrahydro-1H-pyrido[4,3-b]indole] | 35% | 95% | 58% | 99% | 104% | 93% | – |
| Cc1ccc2c(c1)c1c(n2CC2(c3ccccc3)OCCO2)CCN(C)C1 [Compound 2, 2,8-dimethyl-5-((2-phenyl-1,3-dioxolan-2-yl)methyl)-2,3,4,5-tetrahydro-1H-pyrido[4,3-b]indole] | 56% | 91% | 51% | 93% | 102% | – | – |
| CN1CCc2c(c3cc(Cl)ccc3n2CC2(c3ccc(Cl)cc3)OCCO2)C1 [Compound 5, 8-chloro-5-((2-(4-chlorophenyl)-1,3-dioxolan-2-yl)methyl)-2-methyl-2,3,4,5-tetrahydro-1H-pyrido[4,3-b]indole] | 16% | 95% | 53% | 99% | 85% | 89% | – |
| CNC(=O)CC(Cn1c2c(c3cc(C)ccc31)CN(C)CC2)c1ccc(F)cc1 (stereo not drawn) [Compound 8, 4-(2,8-dimethyl-3,4-dihydro-1H-pyrido[4,3-b]indol-5(2H)-yl)-3-(4-fluorophenyl)-N-methylbutanamide] | 87% | 63% | 14% | 85% | 63% | 74% | – |
| Cc1ccc2c(c1)c1c(n2CC(CC(=O)O)c2ccc(F)cc2)CCN(C)C1 (stereo not drawn) [Compound 7, 4-(2,8-dimethyl-3,4-dihydro-1H-pyrido[4,3-b]indol-5(2H)-yl)-3-(4-fluorophenyl)butanoic acid] | 21% | 9% | -10% | 9% | -3% | 5% | – |
